Results on 14 molecules are retold here after US7915268B2, “8-substituted 2-(benzimidazolyl)purine derivatives for immunosuppression” (Wyeth LLC, priority 2006, dated 2011).

SMILES strings stand for the structures.

For assay [1], the system named is spontaneous autoimmune diabetes. The settings on record: NOD mouse; cited from earlier work.
A further assay relates to GVHD. The note with it: in vivo; cited from earlier work.
In the next assay the target is T1, Jak3 (Homo sapiens, UniProt P52333).
T1 construct: catalytic domain of Jak3 (508aa to 1124aa); made in house; host or cells: Sf9 insect cells (baculovirus, pFastBac 1)
T1 sequence (P52333 508-1124): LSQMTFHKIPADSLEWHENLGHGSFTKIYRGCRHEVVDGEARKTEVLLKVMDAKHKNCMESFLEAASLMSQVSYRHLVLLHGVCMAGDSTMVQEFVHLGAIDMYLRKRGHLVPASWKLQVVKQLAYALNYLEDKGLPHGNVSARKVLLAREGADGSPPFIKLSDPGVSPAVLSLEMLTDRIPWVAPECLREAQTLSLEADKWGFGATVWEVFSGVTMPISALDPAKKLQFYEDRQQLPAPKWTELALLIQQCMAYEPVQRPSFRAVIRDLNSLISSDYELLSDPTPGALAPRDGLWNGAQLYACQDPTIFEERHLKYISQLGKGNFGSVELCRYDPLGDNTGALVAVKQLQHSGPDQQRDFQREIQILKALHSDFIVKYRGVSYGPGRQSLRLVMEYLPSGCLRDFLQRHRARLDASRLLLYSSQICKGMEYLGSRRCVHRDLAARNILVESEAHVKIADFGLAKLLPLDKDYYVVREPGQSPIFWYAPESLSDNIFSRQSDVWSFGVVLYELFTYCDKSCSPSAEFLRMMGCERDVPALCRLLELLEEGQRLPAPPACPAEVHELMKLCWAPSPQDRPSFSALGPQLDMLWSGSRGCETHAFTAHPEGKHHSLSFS
In words: Jak3 Kinase Assay (HTRF, GST-Jak3 catalytic domain). It counts as biochemical. The settings on record: 1 μM ATP, 60-min incubation, read-out: Jak 3 (Converted). The method, then: Human Jak3 cDNA was amplified by PCR. A fragment encoding the catalytic domain of Jak3 (508aa to 1124aa) was ligated with GST at 5′ end. This fused GST-Jak3 DNA fragment was cloned into the EcoRI site of the donor plasmid pFastBac 1 (Life Technologies #10359-016). The transformation, transposition, and transfection of insect cells (Sf9) were performed according to the manufacture's instructions. The cell lysate containing recombinant GST-Jak3 was used in the kinase assay. Anti-GST antibody (10 μg/ml, Sigma #G1417) was coated onto a 384-well plate at 4° C. overnight. Cell lysate containing GST-Jak3 (1:100 dilution) was added to the anti-GST coated plates, and GST-Jak3 was captured by immobilized anti-GST antibody. Testing compounds and substrate mix (50 mM HEPES, pH 7, 0.5 mM Na3VO4, 25 mM MgCl2, 1 mM DTT, 0.005% BSA, 1 μM ATP, and 4.5 μg/ml biotinyl poly-Glu, Ala, Tyr) were added to the plate to initiate the reaction. After a 60-min incubation, the reaction was stopped by 4 mM EDTA, and phosphorylation of biotinyl poly-Glu, Ala, Tyr was detected using 17 μg/ml Cy5-streptavidin (Amersham, #PA92005) and 2.7 μg/ml Europium-conjugated anti-phosphotyrosine antibody (PerkinElmer #AD0069) using homogeneous time-resolved fluorescence (HTRF) technology.
A general note: TR-FRET usually uses a lanthanide donor and a delayed reading to cut background.

Another assay has as its system IFN-γ production. Briefly: IL-2-Induced IFN-γ Production in the Mouse. The settings on record: oral dose at 30 mg/kg, BALB/c mice, serum IFN-γ. It counts as in vivo. How it is done:
IL-2-Induced IFN-γ Production in the Mouse
Administration of IL-2 leads to an increase in serum IFN-γ in the mouse due to NK secretion of the cytokine (Thornton S, Kuhn K A, Finkelman F D and Hirsch R. NK cells secrete high levels of IFN-γ in response to in vivo administration of IL-2. Eur J Immunol 2001 31:3355-3360). The experiment is carried out essentially according to the protocol in Thornton et al. and the test compounds are administered in order to determine the level of inhibition attained. In summary, female BALB/c mice are fasted for 12-18 hours before a study but have free access to water at all times. Test compounds are administered by gavage one hour before intraperitoneal injection of IL-2 and capture antibody. At termination of the studies, the mice are sacrificed by carbon dioxide inhalation, terminal blood samples are collected by cardiac puncture and serum is generated. Serum is stored frozen until assayed for IFN-γ, as described by the kit manufacturer (BD Pharmingen™, San Diego, Calif.).

Another assay has as its system heart transplantation. The settings on record: murine heart transplantation; cited from earlier work.
The next assay concerns kidney transplantation. The note with it: primate kidney transplantation; cited from earlier work.

Turning to `COc1cc2ncnc(Nc3ccc(O)cc3)c2cc1OC` [WHI-P131], the “spontaneous autoimmune diabetes development” value in assay [1] is on record as “prevent spontaneous autoimmune diabetes development”. For the same molecule, the “severity of GVHD” value with GVHD was “attenuate the severity of GVHD”.

As for `N#Cc1ccc2ncn(-c3ncc4nc(-c5cncnc5)n([C@@H]5CCOc6c(F)cccc65)c4n3)c2c1` [Example 13, 3-(9-((R)-8-fluorochroman-4-yl)-8-(pyrimidin-5-yl)-9H-purin-2-yl)-3H-benzo[d]imidazole-5-carbonitrile], the IC50 at Jak3 is < 100 nM. For the same molecule, the “inhibit IFN-γ production” value in the assay on IFN-γ production is 76%.

Regarding `C[C@@H]1CCN(C(=O)CC#N)C[C@@H]1N(C)c1ncnc2[nH]ccc12` [CP-690,550], the animal survival result in the assay with heart transplantation and in the assay with kidney transplantation was “prolong animal survival” in each case.

Regarding `Fc1ccc2ncn(C3N=c4c(nc(-c5ccnc6ccccc56)n4C4CCOCC4)=CN3)c2c1` (stereo not drawn) [Example 56], the IC50 at Jak3 was > 1000 nM.

For the molecule `N#Cc1ccc2ncn(-c3ncc4nc(Nc5ccccc5F)n(C5CCOCC5)c4n3)c2c1` [Example 109], on Jak3, the IC50 was < 100 nM.

For `CC(C)(C)c1nc2cnc(-n3cnc4ccc(F)cc43)nc2n1C1CCOCC1` [Example 34], the IC50 at Jak3 is < 100 nM.

Regarding `N#Cc1ccc2ncn(-c3ncc4nc(-c5cncnc5)n(C5CCOCC5)c4n3)c2c1` [Example 1], the IC50 at Jak3 is < 100 nM.

As for `Fc1ccc2ncn(-c3ncc4nc(-c5ccco5)n(C5CCOCC5)c4n3)c2c1` [Example 35], the IC50 at Jak3 is < 100 nM.

Take `Oc1cccc(-c2nc3cnc(-n4cnc5ccc(F)cc54)nc3n2[C@@H]2CCOc3c(F)cccc32)c1` [Example 28]: the IC50 at Jak3 lay in the range of 100 to 1000 nM.

As to `Fc1ccc2ncn(-c3ncc4nc(-c5ccc(C(F)(F)F)nc5)n(C5CCOCC5)c4n3)c2c1` [Example 51], the IC50 on Jak3 was < 100 nM.

`CO[C@H]1CC[C@H](n2c(C)nc3cnc(-n4cnc5ccc(OC(F)(F)F)cc54)nc32)CC1` [Example 26]: on Jak3, the IC50 lay within 100 to 1000 nM.

`Cc1nc2cnc(-n3cnc4ccc(OC(F)(F)F)cc43)nc2n1C1CCOCC1` [Example 76, 8-Methyl-9-(tetrahydro-2H-pyran-4-yl)-2-(6-(trifluoromethoxy)-1H-benzo[d]imidazol-1-yl)-9H-purine]: the IC50 on Jak3 is < 100 nM.

`N#Cc1ccc2ncn(-c3ncc4nc(-c5cncnc5)n(C5CCOc6c(F)ccc(F)c65)c4n3)c2c1` (stereo not drawn) [Example 6]: the IC50 at Jak3 was < 100 nM. The “inhibit IFN-γ production” value in the assay on IFN-γ production was found to be 93%.

Consider `c1ccc(-c2nc3cnc(-n4cnc5ccccc54)nc3n2C2CCOCC2)cc1` [Example 91], for which the IC50 at Jak3 is 100 to 1000 nM.
